Consider six compounds from EP1112066B1, “USE OF METHOXYMORPHOLINO DOXORUBICIN FOR THE TREATMENT OF A LIVER TUMOR” (Pharmacia Italia S.p.A., priority 1998, dated 2000).

In data set [1] the test system is liver metastases. The following applies: hepatic arterial infusion; no substantial effect on survival; cited from earlier work.
Data set [2] relates to metastatic colorectal cancer. To be noted: cited from earlier work.
The subject of data set [3] is liver metastases. Briefly: Phase I and phase Ib studies by intravenous route: response in liver and toxicity. To be noted: i.v. It counts as in vivo, human. From the text: The expectation that MMDX is effective in liver neoplasms comes from the findings of phase I and phase Ib studies conducted by intravenous route, where, out of 30 patients evaluable for response in liver, 5 experienced regressions of liver metastases. […] Tumor shrinkage occurred at doses of 1250 and 1500 mcg/m^2 i.v..

For data set [4], the system named is tumor cells resistant to anthracyclines and presenting the mdr phenotype. Briefly: Activity in vitro and in vivo on resistant tumor cells. From the text: MMDX is active in vitro and in vivo on tumor cells resistant to anthracyclines and presenting the mdr phenotype, this last mechanism being recognized to occur also in man.
A well known pathway of the metabolic transformation of the antitumor anthracyclines in mammals is the side-chain carbonyl group reduction, giving the corresponding 13-dihydro derivative.

The subject of data set [5] is murine leukemias, solid murine and human tumor models. Briefly: In vivo antitumor potency, optimal i.v. dose.
The test system of data set [6] is liver metastases from M5076 murine fibrosarcoma. Briefly: Liver metastases from M5076 murine tumor. In kind it is in vivo. From the text: (§1) The high lipophilicity of the molecule, which confers to the compound the ability to reach high intracellular concentrations and is most likely one of the reasons of its efficacy on resistant models, makes it effective also after oral administration. The oral antitumor efficacy of MMDX has been examined in a panel of different tumor types with various schedules of administration. […] In these models, the effective oral doses of MMDX are 1.3-2 fold higher than the effective i.v. doses. […] This might be a reflection of a different behaviour of the drug, due to first pass effect to the liver.
(§2) Strong evidence of antitumor efficacy in liver is also supported by preclinical data. […] This specific effect on liver metastases is probably due to metabolite(s) produced by liver enzymes. This hypothesis is reinforced by several results showing MMDX being activated in vitro by liver microsomes to a highly cytotoxic product. This metabolic conversion is believed to occur also in humans.

The test system of data set [7] is panel of different tumor types. Briefly: Oral antitumor efficacy in a panel of tumor types. In kind it is in vivo.
Excerpt: as §1

Data set [8] is described as follows: Lethal dose (LD10) in rats. In kind it is in vivo. From the text: (§3) The starting dose was 100 mcg/m^2,corresponding to one third of the LD10 in rats.
For data set [9], the system named is liver metastases. Put plainly: Phase II study by i.v. route in breast cancer patients with liver metastases. It counts as in vivo, human. The following applies: 1500 mcg/m^2 i.v., six patients treated.
A further data set relates to HCC. Briefly: Phase I dose-finding study of MMDX via the hepatic artery (IHA): antitumor activity in liver. It counts as in vivo, human. On the procedure:
(§4) A single arm, multicentre, dose-finding Phase I study of MMDX (PNU 152243) administered as a brief infusion of 30 minutes every 4 weeks via the hepatic artery (IHA) to adult patients either with hepatic metastatic colorectal cancer who have progressed after receiving intravenous chemotherapy or intrahepatic 5-fluoruracil chemotherapy, or with previously untreated primary hepatocellular carcinoma or cholangiocarcinoma involving the liver was carried out. Their disease was confined to the liver, at the time of trial entry.
Antitumor activity was documented in this study.
(§5) On a total of 23 registered patients, 18 received intra hepatic artery (IHA) administration of MMDX.
(§6) Doses tested ranged from 100 mcg/m^2 to 800 mcg/m^2.
(§7) Results are available on 13 patients: 3 patients (6 cycles) at 100 mcg/m^2, 3 patients (12 cycles) at 200mcg/m^2, 3 patients (4 cycles) at 400 mcg/m^2, 3 patients (10 cycles) at 600 mcg/m^2 and 1 patient (3 cycles) at 800 mcg/m^2.

Data set [10] can be described thus: Phase I dose-finding study of MMDX via the hepatic artery (IHA): toxicity. In kind it is in vivo, human. The following applies: for thrombocytopenia (grade): considered tumor related (HCC patient); for anemia (max. grade): one patient. On the procedure: as §4
The primary goal of this study was the determination of Maximal Tolerated Dose (MTD) and Dose-Limiting Toxicities (DLTs)of MMDX when administered via the hepatic artery.
as §3, §5, §6, §7

Data set [11] is described as follows: Cytotoxic activity in vitro in the presence of liver microsomes. It counts as cell-based. The following applies: mouse, rat and human liver microsomes.
Excerpt: as §2

The mark [12] stands for this setting: after failure of 5-FU leucovorin.
Where [13] appears, read: systemic, metastatic colorectal cancer.
The mark [14] stands for this setting: 400 mcg/m^2 IHA, one patient (1 cycle).
[15] abbreviates: 600 mcg/m^2 IHA, 1 patient (2 cycles).
The mark [16] stands for this setting: 800 mcg/m^2 IHA, 1 patient (1 cycle).

Structures can show the parent of a compound that is named as a salt. Where two headings read alike, the source gives them in different places. Some results are limits rather than exact numbers.

Take `O=c1[nH]cc(F)c(=O)[nH]1` [5-FU, 5-fluoruracil]: in the data set with liver metastases [1], the response rate entry is on record as “up to 50%”.
For `O=c1[nH]c(=O)n([C@H]2C[C@H](O)[C@@H](CO)O2)cc1F` [FUDR, 5-fluorodeoxyuridine], the response rate entry in the data set on liver metastases [1] is “up to 50%”.
As to `CCc1c2c(nc3ccc(OC(=O)N4CCC(N5CCCCC5)CC4)cc13)-c1cc3c(c(=O)n1C2)COC(=O)[C@]3(O)CC` [Irinotecan hydrochloride trihydrate], in data set [2] (setting [12]), the median survival time entry is given as “approximately 9 months” and the response rate is reported as 15%.
As to 5-fluoruracil (5-FU) plus folinic acid, in [2] (setting [13]), the overall survival entry was “around 12 months” and the response rate is listed as 20%.
`COc1cccc2c1C(=O)c1c(O)c3c(c(O)c1C2=O)C[C@@](O)(C(=O)CO)C[C@@H]3O[C@H]1C[C@H](N2CCO[C@H](OC)C2)[C@H](O)[C@H](C)O1` [MMDX, Methoxymorpholino doxorubicin]: in the data set on liver metastases [3] (phase I and Ib), the main toxicities entry is “nausea and vomiting (requiring intravenous antiemetic treatment), myelosuppression and transient elevations in transaminases”. In addition, in the data set on liver metastases [3] (additional patient with colorectal cancer and multiple liver metastases at entry, after the first cycle), the “liver finding at autopsy” value is “no evidence of liver metastases”. Besides, the “number of patients with regressions of liver metastases” value in the data set with liver metastases [3] (out of 30 patients evaluable for response in liver, shrinkage at 1250 and 1500 mcg/m^2) amounted to 5. The “regression of liver lesions” value in the data set with liver metastases [3] (two patients with colorectal cancer, after 3 cycles) was < 50%. The “regression in liver lesions” value in the data set on liver metastases [3] (two patients with renal cancer, after 3 cycles) is “greater than 50%”. Besides, the lipophilicity result in the data set “Lipophilicity” is recorded as “high”. Further, in data set [4] (in vitro and in vivo), the “activity on tumor cells resistant to anthracyclines (mdr phenotype)” value was “active”. The cross-resistance result in data set [4] (tumor cells resistant to L-PAM or cDDP, or to Topoisomerase II inhibitors (at-mdr)) is “No cross-resistance”. Besides, the antitumor activity result in data set [5] (after i.p., i.v. or oral administration, murine leukemias, solid murine and human tumor models) is “good antitumor activity”. For the same compound, in data set [5] (in vivo, i.v.), the “optimal i.v. dose, fold less than that of doxorubicin” value is recorded as “at least 80 fold”. Further, the “efficacy on the liver metastases versus the solid primary” value in data set [6] (administered orally, same M5076 model) is recorded as “more effective on the liver metastases than on the solid primary”. The “efficacy relative to the oral formulation” value in data set [6] (injectable formulation) was “less effective”. Also, the “survival time (best result)” value in data set [6] (oral formulation, daily for 5 days) is listed as “doubling of survival time”. Besides, in data set [7] (all animal models examined, various schedules), the “oral antitumor activity compared to intravenous (i.v.) administration” value is “comparable”. The “effective oral doses, fold higher than the effective i.v. doses” value in data set [7] (animal models) is 1.3-2 fold. Also, in data set [8], the “one third of the LD10 in rats” value is 100 mcg/m^2. Moreover, the “number of complete responses in liver lesions” value in the data set with liver metastases [9] amounted to 1. Moreover, in the data set on liver metastases [9], the “number of minor responses in liver lesions” value is recorded as 1. The “number of partial responses in liver lesions” value in the data set on liver metastases [9] (one not confirmed four weeks apart) is 3. In addition, in the data set with HCC (200 mcg/m^2 IHA, first HCC patient, after 2 IHA cycles), the “reduction of measurable liver disease (NMR, overall 17.75 cm^2 at entry)” value is recorded as “more than 86%”. The tumor response entry in the data set on HCC (200 mcg/m^2 IHA, first HCC patient, after 2 IHA cycles, confirmed after the fourth) was “Partial Response (PR)”; with HCC (200 mcg/m^2 IHA, first HCC patient, after the sixth IHA cycle), “Complete Response (CR)”; in the data set with HCC (800 mcg/m^2 IHA, third HCC patient, after 3 cycles), “minor response”. In addition, in the data set on HCC (200 mcg/m^2 IHA, patients with HCC), the “number of objective tumor responses in liver” value is “Two”. For the same compound, the “decrease of the bigger lesion in diameter (6 cm at baseline, Ctscan)” value with HCC (200 mcg/m^2 IHA, second HCC patient, after the third IHA cycle) was found to be 50%. In addition, the “leucopenia (grade)” value was 1 in [10] (100 mcg/m^2 IHA, 1 patient (1 cycle)); 1 in [10] (200 mcg/m^2 IHA, 1 patient (1 cycle)); 1 in [10] (400 mcg/m^2 IHA, 1 patient (1 cycle)). Further, the “fatigue (grade)” value was 1-2 in data set [10] (100 mcg/m^2 IHA, 2 patients (3 cycles)); 2 in data set [10] (200 mcg/m^2 IHA, 1 patient (2 cycles)); 2 in [10] (setting [15]); 1 in [10] (setting [16]). For the same compound, in data set [10] (100 mcg/m^2 IHA, one out of three patients (1 cycle)), the vomiting result is “mild”. The “thrombocytopenia (grade)” value was 1-2 in [10] (200 mcg/m^2 IHA, 1 patient (3 cycles)) and 1-2 in data set [10] (600 mcg/m^2 IHA, 1 patient (1 cycle)). The “increase in transaminases (grade), attributable to the study drug” value in data set [10] (200 mcg/m^2 IHA, 2/3 patients) is 1-2; in data set [10] (400 mcg/m^2 IHA, 2/3 patients), 1-2; in data set [10] (600 mcg/m^2 IHA, 2 out of 3 patients) it was 1-2. Moreover, the “nausea (grade)” value in [10] (200 mcg/m^2 IHA, 2 patients (2 cycles)) is on record as 2; in data set [10] (400 mcg/m^2 IHA, 2 patients (2 cycles)), 2-3; in [10] (600 mcg/m^2 IHA, 2 patients (2 cycles)) it was 1-2; in data set [10] (setting [16]), 1. The “vomiting (grade)” value in data set [10] (200 mcg/m^2 IHA, 2 patients (3 cycles)) was 1-2; in data set [10] (setting [14]) it was 2. For the same compound, the “anemia (max. grade)” value in data set [10] (200 mcg/m^2 IHA), in [10] (600 mcg/m^2 IHA) and in data set [10] (800 mcg/m^2 IHA) was ≤ 1 each time. Also, the “hyperglycemia (grade)” value in [10] (200 mcg/m^2 IHA, two patients (one diabetic, persisting from baseline; one post prandial)) worked out at 3. Besides, the alopecia result in [10] (setting [14]) and in data set [10] (setting [15]) was “mild” in each case. Also, the “local pain at porth-a-cath site” value in data set [10] (setting [14]) was “Mild”. Further, the “transaminase elevation (grade)” value is 2-3 in data set [10] (400 mcg/m^2 IHA, third patient, probably due to the IHA technology applied) and 3 in [10] (800 mcg/m^2 IHA, the one patient treated). In data set [10] (setting [16]), the “fever (grade)” value is listed as 1. The “mucositis (grade)” value in data set [10] (setting [16]) is 1. Further, the “time of maximum transaminases elevation” value in data set [10] (IHA) was “during the first week after treatment”. The “most frequently observed adverse events attributable to the study drug” value in data set [10] (IHA, 100-800 mcg/m^2) is “nausea, vomiting and fatigue”. The “other grade 3-4 non-hematological events” value in data set [10] (IHA, 100-800 mcg/m^2) was “No other grade 3-4 events”. Also, the AGC result in data set [10] (IHA, all doses reported) is “always normal”. Also, the “bilirubinemia increases (grade)” value in [10] (IHA, starting from 100 mcg/m^2, not considered due to the study drug) is 2. Further, the “cytotoxic activity in the presence of liver microsomes” value in [11] is recorded as “increased”.
Take `COc1cccc2c1C(=O)c1c(O)c3c(c(O)c1C2=O)CC(O)(C(O)CO)CC3OC1CC(N2CCOC(OC)C2)C(O)C(C)O1` (stereo not drawn) [reduced derivative of MMDX]: the “active doses, fold higher as compared to the parent drug” value in data set [4] (doxorubicin-resistant models, in vitro and in vivo) was found to be 10 fold. The “activity against doxorubicin-resistant models” value in data set [4] (in vitro and in vivo) is listed as “maintains activity”.
